Where two headings read alike, the source gives them in different places.
What was measured:
[1] = biological target: T1, HCV NS5B RdRp genotype 1b (Hepatitis C virus genotype 1b, UniProt Q9WMX2); assay: Standard HCV NS5B RdRp enzyme assay; assay type: biochemical; details: HCV NS5B RdRp genotype 1b, read-out: IC50
T1 construct: The protein was expressed with an 18 amino acid C-terminal truncation to enhance the solubility; made in house; host or cells: E. coli BL21(DE3), pET21a vector
Outline: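 C-terminally truncated (18 aa) genotype 1b NS5B from E. coli, 28 nM, with 6 nM polyA template, 180 nM biotinylated oligo-dT12 primer and 3H-UTP (0.29 μM total UTP). Hepes pH 7.5 buffer with 2% DMSO; 60 min at 30° C. EDTA stop, SPA read-out; IC50 from seven concentrations by four-parameter fit.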

[2] = system: HCV replicon cells; assay: HCV replicon FRET / luciferase assay (96-well plates); assay type: cell-based; details: Hepatitis C virus, HCV replicon, read-out: EC50
Outline: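 Replicon cells (with or without Renilla luciferase reporter) incubated with titrated compounds at 37 °C; Alamar blue read for cytotoxicity first. NS3 protease activity read kinetically with 20 μM EDANS/DABCYL FRET peptide in lysis reagent plus 150 mM NaCl (ex 340/em 490), or by Dual-Glo luciferase. EC50 = 50% signal reduction after protease-inhibitor background subtraction.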

[3] = untitled table after Table 1b, values without asterisk

T1 sequence (Q9WMX2 2420-2992): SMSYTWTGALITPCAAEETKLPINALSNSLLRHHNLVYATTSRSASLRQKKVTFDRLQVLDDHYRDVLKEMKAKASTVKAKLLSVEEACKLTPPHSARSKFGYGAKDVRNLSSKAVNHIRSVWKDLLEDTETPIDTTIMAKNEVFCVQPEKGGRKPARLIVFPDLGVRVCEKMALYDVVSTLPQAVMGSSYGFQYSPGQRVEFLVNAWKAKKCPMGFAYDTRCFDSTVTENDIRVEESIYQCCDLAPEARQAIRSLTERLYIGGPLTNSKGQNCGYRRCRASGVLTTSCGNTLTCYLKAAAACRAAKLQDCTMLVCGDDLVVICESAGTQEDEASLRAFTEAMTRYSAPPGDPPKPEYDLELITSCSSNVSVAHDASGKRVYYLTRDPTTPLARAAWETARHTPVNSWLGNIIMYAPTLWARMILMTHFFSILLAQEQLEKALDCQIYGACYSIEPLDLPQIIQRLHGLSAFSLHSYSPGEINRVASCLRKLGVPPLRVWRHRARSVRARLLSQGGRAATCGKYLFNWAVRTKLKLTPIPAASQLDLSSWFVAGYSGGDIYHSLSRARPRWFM

Row | Compound | IC50 ([1]; Table 1a) [nM] | EC50 ([2]; Table 1a) [nM] | IC50 ([1]; Table 1b) [nM] | EC50 ([2]; Table 1b) [nM] | also measured
1 | CNC(=O)c1c(-c2ccc(F)cc2)oc2ccc(-c3cccc(C(=O)Nc4ccccn4)c3)cc12 | < 250 | < 250 | – | – | –
2 | CNC(=O)c1c(-c2ccc(F)cc2)oc2ccc(-c3cc(C(=O)NC4(c5ccccc5)CC4)ccc3O)cc12 | – | – | < 250 | < 250 | –
3 | CNC(=O)c1c(-c2ccc(F)cc2)oc2ccc(-c3cc(C(=O)NCC(C)C)ccc3OCCc3c[nH]c4ccccc34)cc12 | – | – | 1000 to 10000 | 1000 to 10000 | –
4 | CNC(=O)c1c(-c2ccc(F)cc2)oc2ccc(-c3cccc(C(=O)NC(C)(C)c4nc(C)no4)c3)cc12 | – | – | < 250 | < 250 | –
5 | CNC(=O)c1c(-c2ccc(F)cc2)oc2ccc(-c3cc(F)cc(C(=O)NC4(c5ccccn5)CC4)c3)cc12 | – | – | < 250 | < 250 | –
6 | CNC(=O)c1c(-c2ccc(F)cc2)oc2ccc(-c3cccc(-c4nc(-c5ccccc5)no4)c3)cc12 | – | – | > 10000 | < 250 | –
7 | CNC(=O)c1c(-c2ccc(F)cc2)oc2ccc(-c3cccc(S(=O)(=O)N4CCOCC4)c3)cc12 | > 10000 | > 10000 | – | – | –
8 | CNC(=O)c1c(-c2ccc(F)cc2)oc2ccc(-c3cc(C(=O)NCC(C)C)ccc3OC(F)(F)F)cc12 | – | – | 250 to 1000 | > 10000 | –
9 | CCCOc1cc(C)c(-c2ccc3oc(-c4ccc(F)cc4)c(C(=O)NC)c3c2)cc1C(=O)NC1(c2ccccn2)CC1 | – | – | – | – | IC50 ([1]; Table 1d (class symbols)): 1 to 250 nM; EC50 ([2]; 24 h, Table 1d (class symbols)): 1 to 250 nM
10 | CNC(=O)c1c(-c2ccc(F)cc2)oc2cc(NS(C)(=O)=O)c(-c3cc(C(=O)NCC(C)C)ccc3OC)cc12 | – | – | < 250 | < 250 | –
11 | CNC(=O)c1c(-c2ccc(F)cc2)oc2ccc(-c3ccc(C(=O)NCC(C)C)cc3)cc12 | > 10000 | 250 to 1000 | – | – | –
12 | CNC(=O)c1c(-c2ccc(F)cc2)oc2ccc(-c3cccc(C(=O)N(C)C(C)(C)C)c3)cc12 | < 250 | < 250 | – | – | –
13 | CNC(=O)c1c(-c2ccc(C)cc2)oc2ccc(-c3cc(C(=O)NC4(c5nc(COC)no5)CC4)ccc3C)cc12 | – | – | < 250 | < 250 | –
14 | CNC(=O)c1c(-c2ccc(F)cc2)oc2ccc(-c3ccc(O)c(C(=O)NCC(C)C)c3)cc12 | – | – | 1000 to 10000 | > 10000 | –
15 | CNC(=O)c1c(-c2ccc(F)cc2)oc2ccc(-c3cc(C(=O)NCC(C)C)ccc3OCCc3ccc(O)cc3)cc12 | – | – | 250 to 1000 | 250 to 1000 | –
16 | CNC(=O)c1c(-c2ccc(F)cc2)oc2ccc(-c3cc(C(=O)NC4(CO)CC4)ccc3C)cc12 | – | – | 1000 to 10000 | 1000 to 10000 | –
17 | CNC(=O)c1c(-c2ccc(F)cc2)oc2ccc(-c3cccc(C(=O)NCCOC)c3)cc12 [drawing 615] | – | – | – | – | IC50 ([1]; untitled table after Table 1b): 1710 nM; EC50 [2, 3]: 1340 nM
18 | CNC(=O)c1c(-c2ccc(F)cc2)oc2ccc(-c3cc(C(=O)NC4(c5ncccn5)CC4)cc(F)c3C)c(F)c12 [drawing 668] | – | – | – | – | IC50 ([1]; Table 1d (class symbols)): 1 to 250 nM; EC50 ([2]; 24 h, Table 1d (class symbols)): 1 to 250 nM
19 | CNC(=O)c1c(-c2ccc(F)cc2)oc2ccc(-c3cc(C(=O)NC4(C(=O)OC)CC4)ccc3C)cc12 | – | – | < 250 | < 250 | –
20 | CNC(=O)c1c(-c2ccc(F)cc2)oc2ccc(-c3ccc(C(F)(F)F)c(Cl)c3)cc12 | > 10000 | > 1230 | – | – | –
21 | CNC(=O)c1c(-c2ccc(F)cc2)oc2ccc(-c3cccc(C(=O)Nc4nccs4)c3)cc12 | < 250 | 250 to 1000 | – | – | –
22 | CNC(=O)c1c(-c2ccc(F)cc2)oc2ccc(-c3cc(C(=O)NCC(C)C)ccc3OCCc3ccccn3)cc12 | – | – | 250 to 1000 | < 250 | –
23 | CNC(=O)c1c(-c2ccc(F)cc2)oc2ccc(-c3cccc(-c4nc(-c5ccccc5)c[nH]4)c3)cc12 | – | – | 250 to 1000 | < 250 | –
24 | CNC(=O)c1c(-c2ccc(F)cc2)oc2ccc(-c3cccc(C(=O)N4CC[C@@H](O)C4)c3)cc12 | 1000 to 10000 | 1000 to 10000 | – | – | –
25 | CNC(=O)c1c(-c2ccc(F)cc2)oc2ccc(-c3cc(C(=O)NC4(c5ccccn5)CC4)ccc3OCC(N)=O)cc12 | – | – | < 250 | < 250 | –

Row | Compound | IC50 ([1]; Table 1a) [nM] | EC50 ([2]; Table 1a) [nM] | IC50 ([1]; Table 1b) [nM] | EC50 ([2]; Table 1b) [nM] | also measured
26 | CNC(=O)c1c(-c2ccc(F)cc2)oc2ccc(-c3cccc(C(=O)N4CCCC4c4ccccn4)c3)cc12 (centres unmarked) | 250 to 1000 | 250 to 1000 | – | – | –
27 | CNC(=O)c1c(-c2ccc(F)cc2)oc2ccc(-c3cc(C(=O)NC4(c5nnc(C6CC6)[nH]5)CC4)ccc3C)cc12 | – | – | < 250 | < 250 | –
28 | CCCC(CCC)NC(=O)c1cccc(-c2ccc3oc(-c4ccc(F)cc4)c(C(=O)NC)c3c2)c1 | > 400 | 1000 to 10000 | – | – | –
29 | CNC(=O)c1c(-c2ccc(F)cc2)oc2ccc(-c3ccc(C(=O)NCCC(N)=O)cc3)cc12 | > 10000 | > 10000 | – | – | –
30 | CNC(=O)c1c(-c2ccc(F)cc2)oc2ccc(-c3cc(C(=O)NCC(C)C)ccc3OCCO)cc12 | – | – | < 250 | < 250 | –
31 | CNC(=O)c1c(-c2ccc(F)cc2)oc2ccc(-c3cccc(C(=O)NC4CC4)c3)cc12 | 250 to 1000 | 250 to 1000 | – | – | –
32 | CNC(=O)c1c(-c2ccccc2)oc2ccc(-c3cc(C(=O)NC4(c5nc(-c6ccccn6)no5)CC4)ccc3C)cc12 | – | – | < 250 | < 250 | –
33 | CNC(=O)c1c(-c2ccc(F)cc2)oc2cc(N)c(-c3cccc(C(=O)NC(C)(C)c4ccccc4)c3)cc12 [drawing 607] | – | – | – | – | IC50 ([1]; untitled table after Table 1b): 5.45 nM; EC50 [2, 3]: 2.47 nM
34 | CNC(=O)c1c(-c2ccc(F)cc2)oc2ccc(-c3cc(OCCC4CCCNC4)cc(C(=O)NCC(C)C)c3)cc12 (centres unmarked) | – | – | < 250 | < 250 | –
35 | CNC(=O)c1c(-c2ccc(F)cc2)oc2ccc(-c3cc(OC)ncc3Cl)cc12 | > 10000 | > 1230 | – | – | –
36 | CNC(=O)c1c(-c2ccc(F)cc2)oc2ccc(-c3cccc(C(=O)Nc4cc(C)no4)c3)cc12 | 1000 to 10000 | 1000 to 10000 | – | – | –
37 | CNC(=O)c1c(-c2ccc(F)cc2)oc2ccc(-c3cc(C(=O)NC4(c5nnc(-c6ccccn6)[nH]5)CC4)ccc3C)cc12 | – | – | < 250 | < 250 | –
38 | CNC(=O)c1c(-c2ccc(F)cc2)oc2ccc(-c3cccc(C(=O)Nc4ccncn4)c3)cc12 | 250 to 1000 | 250 to 1000 | – | – | –
39 | CNC(=O)c1c(-c2ccc(F)cc2)oc2ccc(-c3ccc(CO)cc3)cc12 | > 10000 | 250 to 1000 | – | – | –
40 | CNC(=O)c1c(-c2ccc(F)cc2)oc2ccc(-c3ccc(Cl)c(C(=O)NCC(C)C)c3)cc12 | 1000 to 10000 | 1000 to 10000 | – | – | –
41 | CNC(=O)c1ccc(-c2ccc(-c3ccc4oc(-c5ccc(F)cc5)c(C(=O)NC)c4c3)cc2C(=O)NCC(C)C)cn1 | – | – | > 10000 | > 10000 | –
42 | CNC(=O)c1c(-c2ccc(F)cc2)oc2ccc(-c3cc(C(=O)NC4(c5ccc(F)cc5)CC4)ccc3C)cc12 | – | – | < 250 | < 250 | –
43 | CNC(=O)c1c(-c2ccc(F)cc2)oc2ccc(-c3cc(C(=O)NCC(C)C)ccc3OC3CCCC3)cc12 | – | – | > 10000 | 1000 to 10000 | –
44 | CNC(=O)c1c(-c2ccc(F)cc2)oc2ccc(-c3cc(OCCC4CCNCC4)cc(C(=O)NCC(C)C)c3)cc12 | – | – | < 250 | 1000 to 10000 | –
45 | CNC(=O)c1c(-c2ccc(F)cc2)oc2ccc(-c3cccc(C(=O)NCC4CC4)c3)cc12 | < 250 | < 250 | – | – | –
46 | CNC(=O)c1c(-c2ccc(F)cc2)oc2ccc(-c3ccc(F)cc3OCc3ccccc3)cc12 | > 10000 | 1000 to 10000 | – | – | –
47 | CNC(=O)c1c(-c2ccc(F)cc2)oc2cc(N)c(-c3cc(C(=O)NC4(c5ccccc5)CC4)ccc3C)cc12 | – | – | < 250 | < 250 | –
48 | CNC(=O)c1c(-c2ccc(F)cc2)oc2ccc(-c3cccc(C(=O)Nc4ccc(OC)cc4)c3)cc12 | < 250 | < 250 | – | – | –
49 | CNC(=O)c1c(-c2ccc(F)cc2)oc2ccc(-c3cccc(C(=O)N4CCCC4c4ccccc4)c3)cc12 (centres unmarked) | 250 to 1000 | 250 to 1000 | – | – | –

Source: patent publication US8309558B2, “Compounds for the treatment of hepatitis C” (Bristol-Myers Squibb Company, priority 2008, dated 2012)
